Experiment: Stability study at 40° C./75% RH (appearance; potency by HPLC)
Type: physicochemical
Method: All the vials were sealed with HPLC vial cap. The Time 0 samples were in −20° C. freezer and all other samples in 40° C./75% RH chamber. […] After appropriate dilution, analyzed the samples by HPLC according to the method below:
The standard stock solution of Compound 1 was prepared by dissolving 1.18 mg Compound 1 with 25 ml mixture of acetonitrile and water (acetonitrile:water=1:1). The stock solution was serially further diluted with a dilution factor of 2 to obtain a standard calibration curve.

## NC(=O)CCC/C=C\C[C@@H]1[C@@H](/C=C/[C@@H](O)CCc2cc(Cl)sc2Cl)[C@H](O)C[C@@H]1O [Compound 1, (Z)-7-((1R,2R,3R,5S)-2-((S,E)-5-(2,5-dichlorothiophen-3-yl)-3-hydroxypent-1-en-1-yl)-3,5-dihydroxycyclopentyl)hept-5-enamide]
40° C./75% RH, 12 weeks
  Physical state on storage: became an oil
40° C./75% RH, within hours
  Physical state on storage: turns into oil
Day 1, 40° C./75% RH
  Appearance: Oil
Time 0, sample kept in −20° C. freezer
  Appearance: White
Week 1, 40° C./75% RH
  Appearance: Oil
Week 2, 40° C./75% RH
  Appearance: Oil
Week 4, 40° C./75% RH
  Appearance: Oil
Week 8, 40° C./75% RH
  Appearance: Oil
Week 12, 40° C./75% RH
  Appearance: Oil
End of the 12-week study, 40° C./75% RH, HPLC
  Potency loss: about 20%

— US10765629B2 (Allergan, Inc., priority 2017, dated 2020)
